Legend:
[1] = tested on: oligodendrocyte progenitors; assay: Primary/secondary screening: oligodendrocyte progenitor morphology changes and Plp-EGFP fluorescence; type: cell-based, mouse; parameters: key to differentiation scale score (cell morphology): 1: bipolar, undifferentiated; 2: bipolar to tripolar, initiated differentiation; 3: multibranched, differentiated cells; 4: multibranched, differentiated cells showing membranous structures; settings: 10 μM, 48 hr
Protocol: Oligodendrocyte progenitors were generated from embryonic neural progenitors growing in cell aggregates known as neurospheres (Nphs). Nph were prepared from embryos at 14.5 days of gestation obtained from timed pregnant females of either wild type mice or the proteolipid protein-enhanced-green fluorescence protein (Plp-EGFP) transgenic mouse. In brief, after separation of meninges and cerebellum, cerebrum tissue was mechanically triturated with a 1 ml Gilson pipette until total tissue disaggregation was achieved, filtered through a 70 μm cell strainer (Fisher Scientific, Pittsburg, Pa.) and plated in 25 cm^2 plastic culture flasks (2 brains/flask). Nph proliferation media (NPM) was DMEM/F12, B27 neuronal supplement (Gibco, Baltimore, Md.) and 10 ng/ml EGF (Sigma, St. Louis, Mo.). After 48-72 hr, floating Nphs were passaged at a 1:3 ratio in the same medium every 3-4 days. To generate oligodendrocyte progenitors, single cells suspensions were obtained by chemical disgregation with the mouse NeuroCult dissociation kit (StemCell Technologies, Alberta, Canada). The single cell suspension was filtered through a 70 μm cell strainer and plated on 96-well poly-D-Lysine (PDL)-coated plates at a cell density of 1.5×10^4 cells/cm^2. Cells were maintained in NPM supplemented with 10 ng/ml PDGF/bFGF instead of EGF. Bipolar, oligodendrocyte progenitor cells were observed 24 hours after plating. […]
The small molecule library consists of handcrafted drug-like organic molecules with molecular weight in a range of 250-550, dissolved in DMSO at concentration of 5 mg/ml or […]. Their structure and >95% purity have been validated by NMR. […] Oligodendrocyte progenitor differentiation was scored using as 4 scale values as follows: 1: bipolar, undifferentiated; 2: bipolar to tripolar, initiated differentiation; 3: multibranched, differentiated cells; 4: multibranched, differentiated cells showing membranous structures (FIG. 1).
Differentiation induced by selected compounds was further validated by fluorescence microscopy in cells generated from our Plp-EGFP transgenic mouse. Increased fluorescence in treated oligodendrocyte progenitor was indicative of cell maturation and was again scored following the same scale. […] These were analyzed for cell toxicity assays by MTT were yellow 3-(4,5-Dimethylthiazol-2-yl)-2,5-diphenyltetrazolium bromide, a tetrazole (MTT) is reduced to purple formazan in the mitochondria of living cells, showing a solution color change measurable by OD620-590 (Data not shown). Further oligodendrocyte progenitor maturation in response to selected compounds was assessed by induction of myelin protein expression as determined by immunocytochemistry and western blot. […]

[2] = Solubility; type: physicochemical

CCS(=O)(=O)N1CCN(C(=O)COc2ccc(-c3ccccc3)cc2)CC1 [Compound A, 1-[(4-biphenylyloxy)acetyl]-4-(ethylsulfonyl)piperazine]
differentiation scale score (cell morphology) [1]: 4

CC(C)N1CCN(C(=O)COc2ccc(-c3ccccc3)cc2)CC1 [Compound A-7, 1-(Biphenyl-4-yloxy)acetyl-4-isopropylpiperazine]
solubility [2]: high
